In US4043994A, “New pentapeptides and methods for their production” (Parke, Davis & Company, priority 1976, dated 1977):
Several values for one entry are separate records, joined by “and”; a condition that tells them apart may be missing. Identical values can stand only once. Ends that are not written are not given here.

Test system: LRF (luteinizing hormone release factor) induced luteinizing hormone (LH) release
Assay: In vitro LRF antagonist test in rat anterior pituitary cell cultures
Assay type: cell-based
Settings: for LH Value: culture medium
Text: Pentapeptides of this invention were screened for LRF antagonist activity in vitro using rat anterior pituitary cell cultures as described by Vale et. al. [Endocrinology, 91, 562 (1972)]. The inhibition of LRF (luteinizing hormone release factor) induced luteinizing hormone (LH) release into the culture medium is the endpoint in this in vitro bioassay.

[1] = compound 1×10^-6 molar, LRF 2.5×10^-10 molar
[2] = compound 1×10^-6 molar, LRF 5×10^-10 molar
[3] = compound 5×10^-6 molar, LRF 5×10^-10 molar

| Compound | % LH Release Inhibition [1] | LH Value [1] | % LH Release Inhibition [2] | LH Value [2] | % LH Release Inhibition [3] | LH Value [3] | LH Value (LRF alone 2.5×10^-10 molar) | LH Value (LRF alone 2.5×10^-10 molar, listed as LRF control) | LH Value (LRF alone 5×10^-10 molar) |
| --- | --- | --- | --- | --- | --- | --- | --- | --- | --- |
| CCNC(=O)C1CCCN1C(=O)[C@@H](C)NC(=O)[C@H](Cc1ccc(OCc2ccccc2)cc1)NC(=O)[C@H](COCc1ccccc1)NC(=O)[C@@H](Cc1c[nH]c2ccccc12)NC(=O)OC(C)(C)C (mixture of isomers) [N^α -t-Butoxycarbonyl-D-tryptophyl-O-benzyl-L-seryl-O-benzyl-L-tyrosyl-D-alanyl-DL-proline N-ethylamide] | 84% | 10.61 ng/mL | 43% | 34.51 ng/mL | 90% | 14.02 ng/mL |  |  |  |
| LRF Control: luteinizing hormone releasing factor, also referred to as luteinizing hormone releasing hormone, or LH-RH; the stimulus in the assay (QHWSYGLRPG; ends and bridges not checked; UniProt P01148 24-33, looked up) [reference compound] |  |  |  |  |  |  | 49.90 ng/mL and 28.52 ng/mL | 51.62 ng/mL | 52.93 ng/mL |
| N^α -t-Butoxycarbonyl-N^im -benzyl-L-histidyl-O-benzyl-L-seryl-O-benzyl-L-tyrosyl-D-alanyl-L-leucine methyl ester | 72% | 20.26 ng/mL |  |  |  |  |  |  |  |
| N^α -t-Butoxycarbonyl-N^im -benzyl-L-histidyl-O-benzyl-L-seryl-O-benzyl-L-tyrosyl-D-alanyl-L-leucyl hydrazide | 71% | 19.35 ng/mL |  |  |  |  |  |  |  |
